We go through nine molecules from PubChem BioAssay (NCI).

Test systems include ACHN renal; COLO 205 colon; HOP-92 NSCLC; NCI-H460 lung; OVCAR-5 ovarian; SN12C renal; SNB-19 CNS; TK-10 renal; UACC-62 melanoma; UO-31 renal; DU-145 prostate; K-562 leukemia; MDA-MB-231 breast; NCI-H226 lung; NCI/ADR-RES ovarian; RXF 393 renal; U251 CNS; SNB-75 CNS.
Holding throughout (experiment): NCI anticancer screen, dose series, 48 h

The structures appear in SMILES notation.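 Compound exposure: 48 hours, 5 concentrations, 96-well plates. TGI is the concentration that stops growth completely.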

With `O=C(/C=C/c1ccccc1)c1cc(C(=O)/C=C/c2ccccc2)c(O)cc1O`, the TGI in the experiment on ACHN renal, in the experiment with COLO 205 colon, in the experiment with HOP-92 NSCLC, in the experiment with NCI-H460 lung, with OVCAR-5 ovarian and with SN12C renal was > 100 µM in each case. The TGI with SNB-19 CNS, in the experiment with TK-10 renal, in the experiment on UACC-62 melanoma and in the experiment with UO-31 renal was > 100 µM throughout.

As for `COc1ccc(/C=C2\CCC(C)c3c2nc(N)c(C#N)c3-c2ccc(OC)c(OC)c2)cc1OC` (configuration not stated), the TGI was > 100 µM with ACHN renal; 73.1 µM in the experiment on COLO 205 colon; > 100 µM in the experiment on DU-145 prostate; > 100 µM with K-562 leukemia; > 100 µM with MDA-MB-231 breast; > 100 µM with NCI-H226 lung. The TGI with NCI/ADR-RES ovarian, in the experiment on OVCAR-5 ovarian, in the experiment with RXF 393 renal, in the experiment with SN12C renal, in the experiment on SNB-19 CNS and in the experiment with TK-10 renal was > 100 µM throughout. Moreover, the TGI with U251 CNS, in the experiment on UACC-62 melanoma and in the experiment on UO-31 renal was > 100 µM in each case.

For `N#C/C(=C\c1ccc([N+](=O)[O-])o1)c1n[nH]c(Cc2ccccc2)n1`, the TGI in the experiment on ACHN renal is 4.11 µM; with COLO 205 colon, 2.74 µM; in the experiment with DU-145 prostate, 3 µM; in the experiment on HOP-92 NSCLC, 5.85 µM; in the experiment with K-562 leukemia it was > 22.3 µM; in the experiment on MDA-MB-231 breast, 5 µM. Moreover, the TGI in the experiment on NCI-H226 lung is 6.04 µM; with NCI-H460 lung, 12.2 µM; in the experiment on NCI/ADR-RES ovarian it was 12.8 µM; in the experiment with OVCAR-5 ovarian, 3.5 µM; in the experiment on RXF 393 renal, 2.76 µM; with SN12C renal it was 4.03 µM. The TGI in the experiment on SNB-19 CNS was found to be 17.3 µM; with SNB-75 CNS it was 6.75 µM; in the experiment with TK-10 renal, 4.15 µM; in the experiment on U251 CNS, 10.7 µM; in the experiment with UACC-62 melanoma, 3.55 µM; in the experiment on UO-31 renal, 9.74 µM.

As to `COc1ccc(-c2c(-c3ccccc3)c(C)nc3[nH]c(=S)[nH]c(=S)c23)cc1OC`, the TGI in the experiment on ACHN renal is > 100 µM; in the experiment on COLO 205 colon, 72.1 µM; in the experiment on DU-145 prostate it was > 100 µM; in the experiment with HOP-92 NSCLC it was > 100 µM; with K-562 leukemia, > 100 µM; with MDA-MB-231 breast it was > 100 µM. For the same molecule, the TGI with NCI-H226 lung is > 100 µM; in the experiment on NCI-H460 lung, 98.3 µM; in the experiment with NCI/ADR-RES ovarian, > 100 µM; in the experiment with OVCAR-5 ovarian it was > 100 µM; in the experiment on RXF 393 renal, > 100 µM; in the experiment with SN12C renal it was 83.3 µM. The TGI was > 100 µM in the experiment with SNB-19 CNS; > 100 µM in the experiment with SNB-75 CNS; > 100 µM in the experiment on TK-10 renal; > 100 µM with U251 CNS; 40.2 µM in the experiment on UACC-62 melanoma; 68.4 µM in the experiment on UO-31 renal.

For the molecule `CC1=NN(C(=O)CC(=O)NC(=O)/C=C\c2ccccc2)C(=O)C1N=Nc1ccc([N+](=O)[O-])cc1` (configuration not stated), the TGI in the experiment with ACHN renal was > 100 µM; in the experiment on COLO 205 colon, > 100 µM; in the experiment with DU-145 prostate, > 100 µM; with HOP-92 NSCLC, 97.4 µM; in the experiment with K-562 leukemia it was > 100 µM; in the experiment with MDA-MB-231 breast, > 100 µM. The TGI with NCI-H460 lung, with NCI/ADR-RES ovarian, in the experiment on OVCAR-5 ovarian, with RXF 393 renal, in the experiment on SN12C renal and with SNB-19 CNS was > 100 µM in each case. The TGI in the experiment on SNB-75 CNS, in the experiment with TK-10 renal, with U251 CNS, in the experiment on UACC-62 melanoma and in the experiment on UO-31 renal was > 100 µM throughout.

`Cc1ccc2c(=O)c(-c3nnc(NC4CCCCC4)s3)c[nH]c2n1`: the TGI in the experiment on ACHN renal, in the experiment on COLO 205 colon, in the experiment with DU-145 prostate, in the experiment on K-562 leukemia, in the experiment with MDA-MB-231 breast and in the experiment on NCI-H226 lung was > 100 µM in each case. Besides, the TGI in the experiment on NCI-H460 lung, in the experiment with NCI/ADR-RES ovarian, in the experiment on OVCAR-5 ovarian, in the experiment on RXF 393 renal, in the experiment with SN12C renal and with SNB-19 CNS was > 100 µM each time. Further, the TGI with TK-10 renal, with U251 CNS, in the experiment with UACC-62 melanoma and with UO-31 renal was > 100 µM each time.

Take `COC1(OC)N=C(N)C2(C#N)C(C)=C3NCN(C)N=C3C12C#N` (configuration not stated): the TGI in the experiment with ACHN renal, in the experiment on COLO 205 colon, in the experiment with DU-145 prostate, in the experiment on HOP-92 NSCLC, with K-562 leukemia and with MDA-MB-231 breast was > 100 µM each time. Besides, the TGI in the experiment with NCI-H226 lung, with NCI/ADR-RES ovarian, with OVCAR-5 ovarian, in the experiment on RXF 393 renal, with SN12C renal and in the experiment on SNB-19 CNS was > 100 µM each time. Further, the TGI in the experiment on SNB-75 CNS, with TK-10 renal, with U251 CNS, with UACC-62 melanoma and in the experiment with UO-31 renal was > 100 µM in each case.

Regarding `CN(C(=S)Cc1ccc(Cl)c(Cl)c1)C1CCCC[C@@H]1N1CCCC1` (some centres not stated), the TGI in the experiment with ACHN renal, with DU-145 prostate, in the experiment on K-562 leukemia, with MDA-MB-231 breast, in the experiment with NCI-H226 lung and in the experiment with NCI/ADR-RES ovarian was > 100 µM each time. Besides, the TGI with OVCAR-5 ovarian was > 100 µM; in the experiment on SN12C renal it was > 100 µM; with SNB-19 CNS, > 100 µM; in the experiment on TK-10 renal, 89.2 µM; in the experiment on U251 CNS it was > 100 µM; with UACC-62 melanoma, 34.1 µM. This molecule gave a TGI in the experiment on UO-31 renal of 48.8 µM.

`Nc1nc(Cl)c(N)c(NCC2(CO)CCC(CCc3ccccc3)C2)n1` (configuration not stated): the TGI was > 68.9 µM in the experiment on ACHN renal; 25.1 µM in the experiment with COLO 205 colon; 55.1 µM in the experiment with DU-145 prostate; 49.2 µM in the experiment on HOP-92 NSCLC; 48 µM in the experiment with K-562 leukemia; 34.4 µM in the experiment on MDA-MB-231 breast. Also, the TGI in the experiment on NCI-H226 lung is 42.5 µM; with NCI-H460 lung, 32.2 µM; in the experiment on NCI/ADR-RES ovarian, > 63.1 µM; in the experiment with OVCAR-5 ovarian, 63.5 µM; with RXF 393 renal, 37.2 µM; in the experiment on SN12C renal, 63.2 µM. Moreover, the TGI in the experiment on SNB-19 CNS is > 94 µM; with SNB-75 CNS it was 63.9 µM; in the experiment on TK-10 renal, > 70.7 µM; with U251 CNS, 29 µM; in the experiment on UACC-62 melanoma it was 26 µM; in the experiment with UO-31 renal it was 41.7 µM.
